# US20120010260A1, “METHOD FOR TREATING NERVOUS SYSTEM DISORDERS AND CONDITIONS” (priority 2004, published 2012)
# “And” between values parts separate entries of the source, which are not always exact repeats. Identical values can stand only once.
# Experiments:
# [1] = test system: Male Sprague-Dawley rats with L5/L6 spinal nerve ligation; assay: Spinal nerve ligation (SNL) model of neuropathic pain, tactile hypersensitivity (von Frey); type: in vivo; settings: rat, 30 mg/kg IP, FIG. 7
# Description: Subjects. Male Sprague-Dawley rats (Indianapolis, Ind.) weighing 150 to 200 g at time of arrival, were individually housed in wire cages in a climate-controlled room. A 12-hour light/dark cycle (lights on at 0630) was in effect, and food and water were available ad libitum.
# Surgery—Spinal Nerve Ligation. Rats were anesthetized with 3.5% halothane in O2 at 1 L/min and maintained with 1.5% halothane in O2 during surgery. Ligation of the L5 and L6 nerves was produced by an incision through the left paraspinal muscles. The left L5 and L6 spinal nerves were isolated adjacent to the vertebral column and ligated tightly with 6-0 silk suture just distal to the dorsal root ganglion. […]
# Assessment of tactile hypersensitivity. […] Baseline tactile sensitivity was assessed using a series of calibrated von Frey monofilaments (Stoelting; Wood Dale, Ill.) 0 to 3 days before surgery. […] The ability of a single dose of test compound to reverse established hypersensitivity was assessed using a time course procedure. […]
# Results are presented as the 50% threshold values (50% threshold in g force) estimated by the Dixon non-parametric test. […] Significant main effects were analyzed further by subsequent least significant difference analysis. […]
# Reversal of tactile hypersensitivity was defined as a return to baseline of the tactile sensitivity and was calculated according to the following equation: […]
# [2] = molecular target: T1, human serotonin transporter (hSERT) (Homo sapiens, UniProt P31645); assay: Serotonin (5-HT) uptake assay (hSERT function uptake) in JAR cells; type: cell-based; settings: [3H]5-HT uptake
# T1 construct: cells were stimulated with staurosporine (40 nM) to increase the expression of the 5-HT transporter; host or cells: JAR (human placental choriocarcinoma)
# T1 sequence (P31645 whole entry): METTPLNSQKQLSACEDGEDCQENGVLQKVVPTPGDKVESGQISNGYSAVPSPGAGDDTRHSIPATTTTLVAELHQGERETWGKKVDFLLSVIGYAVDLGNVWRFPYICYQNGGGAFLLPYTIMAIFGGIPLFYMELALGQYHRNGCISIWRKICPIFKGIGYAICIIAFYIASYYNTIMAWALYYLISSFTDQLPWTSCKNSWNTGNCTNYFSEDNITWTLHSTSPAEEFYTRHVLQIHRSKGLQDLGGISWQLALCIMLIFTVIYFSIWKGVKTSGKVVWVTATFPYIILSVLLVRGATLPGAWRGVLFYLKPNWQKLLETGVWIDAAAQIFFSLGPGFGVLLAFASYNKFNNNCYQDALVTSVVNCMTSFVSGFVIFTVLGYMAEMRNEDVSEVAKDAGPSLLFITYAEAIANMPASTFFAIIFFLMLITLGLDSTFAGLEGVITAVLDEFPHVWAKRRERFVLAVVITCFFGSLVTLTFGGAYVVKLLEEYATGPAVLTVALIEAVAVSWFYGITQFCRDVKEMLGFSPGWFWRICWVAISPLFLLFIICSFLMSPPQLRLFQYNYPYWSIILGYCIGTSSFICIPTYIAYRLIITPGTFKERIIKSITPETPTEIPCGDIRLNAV
# Procedure: The methods for 5-HT functional reuptake using the JAR cell line were modified using a previous literature report. […] On day 2, cells were stimulated with staurosporine (40 nM) to increase the expression of the 5-HT transporter. On day 3, cells were removed from the cell incubator two hours prior to assay and maintained at room temperature to equilibrate the growth medium to ambient oxygen concentration. […] Twenty-five microliters of assay buffer (maximum 5-HT uptake) or test compound were added directly to triplicate wells containing cells in 200 μl of assay buffer. The cells were incubated with the compound for 10 minutes (37° C.). […] The cells were incubated with the reaction mixture for 5 minutes at 37° C. The 5-HT uptake reaction was terminated by decanting the assay buffer.
# [3] = molecular target: T2, human dopamine transporter (hDAT) (Homo sapiens, UniProt Q01959); assay: Dopamine transporter (hDAT) membrane binding assay, 3H-WIN 35,428
# T2 construct: purchased Perkin Elmer RBHDATM
# T2 sequence (Q01959 whole entry): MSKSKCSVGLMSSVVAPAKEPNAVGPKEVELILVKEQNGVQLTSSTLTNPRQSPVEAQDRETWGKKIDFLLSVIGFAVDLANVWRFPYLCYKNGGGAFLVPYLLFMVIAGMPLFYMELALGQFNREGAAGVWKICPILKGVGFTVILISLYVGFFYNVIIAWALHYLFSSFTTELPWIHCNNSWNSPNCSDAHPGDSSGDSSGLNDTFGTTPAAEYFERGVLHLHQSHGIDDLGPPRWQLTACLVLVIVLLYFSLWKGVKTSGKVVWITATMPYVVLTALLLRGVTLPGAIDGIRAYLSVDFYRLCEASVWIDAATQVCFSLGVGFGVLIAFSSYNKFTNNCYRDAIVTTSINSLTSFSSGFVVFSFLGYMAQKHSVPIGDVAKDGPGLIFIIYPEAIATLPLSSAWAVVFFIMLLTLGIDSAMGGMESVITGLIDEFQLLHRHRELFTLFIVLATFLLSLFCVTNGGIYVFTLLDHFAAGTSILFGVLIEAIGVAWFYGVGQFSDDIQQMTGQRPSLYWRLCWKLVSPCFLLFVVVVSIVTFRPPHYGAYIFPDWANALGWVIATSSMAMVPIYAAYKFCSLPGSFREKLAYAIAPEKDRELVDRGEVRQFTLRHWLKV
# [4] = test system: ovariectomized (OVX) rats, tail skin temperature (TST); assay: Telemetry rat model of ovariectomy-induced thermoregulatory dysfunction (tail skin temperature); type: in vivo; settings: 30 mg/kg, sc; p<0.05 compared to vehicle control
# Description: This model has been modified from a previously reported protocol describing estrogen regulation of diurnal tail skin temperature (TST) patterns (Berendsen, et al., European Journal of Pharmacology, 2001, 419(1): 47-54). […] A temperature and physical activity transmitter (PhysioTel TA10TA-F40, Data Sciences International) was implanted subcutaneously in the dorsal scapular region and the tip of the temperature probe was tunneled subcutaneously 2.5 cm beyond the base of the tail. After a 7-day recovery period, TST readings were continuously recorded for the remainder of the study. Tail skin temperature readings were collected from each animal every 5 minutes with values obtained over a 10 second sampling period. The day before test day, an average baseline TST value was calculated for each animal by averaging temperature readings recorded during the 12 hour active (dark) phase. […]
# Statistical analysis: Evaluation of a compound's ability to restore normal lowering of TST in the telemetry model was analyzed using hourly TST values calculated for each animal by averaging the 12 temperature readings obtained every 5 minutes over that recording time. […]
# The effect of test compound is measured by evaluating the following parameters in this model: onset of action, duration of effect on TST, maximal change in TST and mean change in TST over the duration of the compound effect.
# [5] = molecular target: human norepinephrine transporter (hNET) (Homo sapiens, UniProt P23975); settings: read-out: hNET function uptake (EC50 in nm); MDCK-Net6 cells, [3H]NE uptake
# Chain of human norepinephrine transporter (hNET) (P23975 whole entry): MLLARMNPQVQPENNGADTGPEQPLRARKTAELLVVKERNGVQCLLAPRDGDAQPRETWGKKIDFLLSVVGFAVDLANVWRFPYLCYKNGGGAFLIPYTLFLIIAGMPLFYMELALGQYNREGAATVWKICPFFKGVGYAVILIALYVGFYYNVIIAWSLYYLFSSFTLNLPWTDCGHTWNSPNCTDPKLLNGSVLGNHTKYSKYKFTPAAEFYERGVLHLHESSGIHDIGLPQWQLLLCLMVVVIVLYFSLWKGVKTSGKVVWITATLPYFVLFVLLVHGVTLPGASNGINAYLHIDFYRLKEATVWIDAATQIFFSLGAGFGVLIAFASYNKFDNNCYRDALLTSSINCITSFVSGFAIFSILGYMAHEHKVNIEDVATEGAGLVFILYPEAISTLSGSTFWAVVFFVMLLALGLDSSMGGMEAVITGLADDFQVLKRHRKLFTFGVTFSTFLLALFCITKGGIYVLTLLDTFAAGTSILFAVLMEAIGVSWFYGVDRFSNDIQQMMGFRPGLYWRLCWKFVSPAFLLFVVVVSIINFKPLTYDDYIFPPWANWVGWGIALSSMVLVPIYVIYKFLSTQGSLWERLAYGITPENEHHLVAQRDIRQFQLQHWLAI
Compound,Reversal of tactile allodynia in the SNL neuropathic pain model [1],EC50 [2],hDAT binding (% I at 10 μM) [3],Restoration of normal TST in OVX-induced thermoregulatory dysfunction telemetry model [4],EC50 [5],hDAT binding (% I at 1 μM) ([3]; 1 μM)
"Clc1ccc(C23CNCC2C3)cc1Cl (racemic) [Racemic 1-(3,4-dichlorophenyl)-3-azabicyclo[3.1.0]hexane, 1-(3,4-dichlorophenyl)-3-azabicyclo[3.1.0]hexane]",significantly reverses tactile allodynia,–,–,–,–,–
"Cc1ccc(C23CNCC2C3)cc1 (single isomer, unassigned; (+)) [(+)-1-(4-methylphenyl)-3-azabicyclo[3.1.0]hexane]",–,7.35 µM,51 % I,restores normal TST,0.148 µM,–
"Cc1ccc(C23CNCC2C3)cc1 (racemic) [Racemic 1-(4-methylphenyl)-3-azabicyclo[3.1.0]hexane, 1-(4-methylphenyl)-3-azabicyclo[3.1.0]hexane]",–,–,45 % I and 52.1 % I,restores normal TST,–,26.5 % I
